{
  "source": "paper PMC8470973",
  "about": "“Multi-Target Actions of Acridones from Atalantia monophylla towards Alzheimer’s Pathogenesis and Their Pharmacokinetic Properties” (Pharmaceuticals, 2021)",
  "key": {"[1]": {"molecular_target": "T1, AChE from Electrophorus electricus (type VI-S) (Electrophorus electricus, UniProt O42275)", "T1 construct": "purchased type VI-S", "T1 sequence (O42275 24-633)": "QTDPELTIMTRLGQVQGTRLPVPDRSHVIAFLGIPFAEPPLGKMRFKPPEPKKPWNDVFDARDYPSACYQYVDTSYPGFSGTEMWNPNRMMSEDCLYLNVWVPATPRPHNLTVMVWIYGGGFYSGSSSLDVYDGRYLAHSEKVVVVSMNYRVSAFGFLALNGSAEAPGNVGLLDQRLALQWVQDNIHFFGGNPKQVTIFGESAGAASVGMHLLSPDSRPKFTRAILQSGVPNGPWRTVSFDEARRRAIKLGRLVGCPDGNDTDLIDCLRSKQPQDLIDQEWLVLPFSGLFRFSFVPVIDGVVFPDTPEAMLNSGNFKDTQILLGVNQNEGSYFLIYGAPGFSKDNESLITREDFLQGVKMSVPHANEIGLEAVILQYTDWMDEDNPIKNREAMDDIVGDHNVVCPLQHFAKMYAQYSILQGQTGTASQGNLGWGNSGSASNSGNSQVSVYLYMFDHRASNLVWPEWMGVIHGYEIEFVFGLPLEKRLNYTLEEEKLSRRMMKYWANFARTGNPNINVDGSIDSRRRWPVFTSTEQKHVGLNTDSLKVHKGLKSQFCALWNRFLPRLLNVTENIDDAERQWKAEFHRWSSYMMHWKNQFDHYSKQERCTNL", "assay": "biochemical", "details": "Ellman's method, pH 7.4, acetylthiocholine 1 mM; mean ± SD; read-out: Anti-AChE IC50", "procedure": "It is well-known that the cholinergic system plays a vital role in the regulation of the learning, cognitive and memory processes. […] In the present study, all acridones were tested for their inhibition of AChE according to the method of Ellman and co-workers, using tacrine as a reference compound. […] Acridone consists of two benzene rings fused together with a keto group and a nitrogen atom at positions 9 and 10, respectively, resulting in a planar structure.\nAChE activity was evaluated and modified from Ellman’s method. All test compounds were prepared as stock solution in ethanol. […] Experiments were performed in triplicates."}, "Aβ1-42": {"molecular_target": "Aβ1-42 (Homo sapiens, UniProt P05067)", "sequence (P05067 672-713 limits assumed)": "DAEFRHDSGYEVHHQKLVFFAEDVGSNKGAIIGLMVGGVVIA", "assay": "Inhibition of self-mediated Aβ1-42 aggregation (thioflavin T assay)", "quoted_text": "The Aβ1-42 self-aggregation process was studied using the thioflavin-T assay [62, 63]. […] All test compounds were dissolved by DMSO."}, "[2]": {"assay": "ABTS radical scavenging assay", "details": "read-out: ABTS Scavenging Activity IC50; mean ± SD, triplicates; 10 to 100 µM tested", "quoted_text": "In the present study, the antioxidant activity of the 10 acridones was evaluated by ABTS radical scavenging assay and trolox was used as the reference compound.\nThe antioxidant activity was determined by the decolonization of the radical cation of 2,2′-azinobis-(3-ethylbenzothiazoline-6-sulfonic acid) (ABTS^•+) [60]. […] Prior to the assay, the ABTS^•+ solution was diluted to get an absorbance of 0.70 ± 0.02 at 700 nm with ethanol. Trolox was used as an antioxidant standard. All test and standard compounds were dissolved in ethanol. Fifty microliters of each test compound was added to 100 µL of diluted ABTS^•+ solution to obtain final concentrations from 10 to 100 µM. […] Experiments were performed in independent triplicates."}, "[3]": {"tested_on": "SH-SY5Y neuroblastoma cells", "assay": "Cytotoxicity by MTT assay in SH-SY5Y cells", "type": "cell-based", "details": "0.1–10 µM, 24 h incubation", "procedure": "[…]. […] […]. Thus, the acridones were investigated for neuroprotective effects against H2O2 and Aβ1-42 induced toxicity in human SH-SY5Y neuroblastoma cells at the non-toxic concentration of 10 µM.\n(§1) Human neuroblastoma cell line SH-SY5Y cells were cultured in Dulbecco’s modified Eagle medium (DMEM)/Ham’s F-12 medium supplemented with 10% fetal bovine serum (FBS), 100 U/mL penicillin and 100 µg/mL streptomycin. Cells were routinely cultured in 75 cm^2 cell culture flasks at 37 °C in 5% CO2. After that, cells were seeded at a density 5 × 10^5 cells/mL in 96-well plates and incubated for an additional 48 h before evaluation.\nFor the investigation of the toxicity effect of test compounds, cells were treated with test compounds at final concentrations of 0.1, 1, 10, 100 μM for 24 h. […] Then, culture media was replaced with a solution of MTT (0.5 mg/mL) at 37 °C for 2 h to determine survival of cells. Live cells containing formazan crystals were solubilized in 100 µL of DMSO. The absorption was measured by UV spectrometer ([…] Accureader M965) at 570 nm. The percentages of cell viability were calculated in relation to untreated cells."}, "SH-SY5Y cells [4]": {"tested_on": "SH-SY5Y cells", "assay": "Neuroprotection against H2O2-induced cell death in SH-SY5Y cells", "type": "cell-based, Human", "details": "10 µM pre-treatment 24 h, then 250 µM H2O2 for 2 h", "procedure": "(§2) To examine the neuroprotective effects of acridones against H2O2, SH-SY5Y cells were pre-treated with 10 µM citrusinine II and glycosparvarine for 24 h before exposure to 250 µM H2O2 for 2 h. […] The cytotoxic effects of H2O2 were attenuated by pre-treating cells with citrusinine II and glycosparvarine (Figure 8). For evaluation of the neuroprotective effects of acridones against Aβ1-42 toxicity, SH-SY5Y cells were pre-treated with 10 µM citrusinine II and glycosparvarine for 24 h, followed by 25 µM Aβ1-42 for 24 h. Cell viability was determined by MTT assay.\nas §1\nFor evaluation of the neuroprotective effect against H2O2 induced cell damage, cells were pretreated with test compounds or a reference standard at the concentration of 10 μM for 24 h. After treatment, the medium was removed, and cells were washed with phosphate buffer saline to remove unabsorbed test compounds. […] The cell viability was determined by MTT assay."}, "SH-SY5Y cells [5]": {"tested_on": "SH-SY5Y cells", "assay": "Neuroprotection against Aβ1-42-induced cell death in SH-SY5Y cells", "type": "cell-based, Human", "details": "10 µM pre-treatment 24 h, then 25 µM Aβ1-42 for 24 h", "procedure": "as §2, §1\nFor neuroprotection against Aβ1–42 toxicity, the Aβ1–42 preparation was modified from Thiratmatrakul et al.. Briefly, lyophilized Aβ1–42 was reconstituted in sterile water and kept at –80 °C until use. […] Twenty-four hours later, cell viability was determined by the MTT colorimetric method. […]"}},
  "data": [
    {"smiles": "CC(C)=CCc1c2c(c3c(c1O)c(=O)c1cccc(O)c1n3C)C=CC(C)(C)O2", "note": "[N-methylatalaphyllinine]", "values": [
      {"measurement": "IC50", "setting": "[1]", "result": "54 ± 2.03", "unit": "µM"},
      {"measurement": "IC50", "setting": "Aβ1-42", "result": "6.14 ± 3.85", "unit": "µM"},
      {"measurement": "IC50", "setting": "[2]", "result": "57.5 ± 3.52", "unit": "µM"}
    ]},
    {"smiles": "CC(C)=CCc1c2c(c3[nH]c4c(O)cccc4c(=O)c3c1O)C=CC(C)(C)O2", "note": "[Atalaphyllinine, atalaphyllinine]", "values": [
      {"measurement": "IC50", "setting": "[1]", "result": "60.8 ± 4.62", "unit": "µM"},
      {"measurement": "IC50", "setting": "Aβ1-42", "result": "4.79 ± 0.67", "unit": "µM"},
      {"measurement": "IC50", "setting": "[2]", "result": "53 ± 1.83", "unit": "µM"}
    ]},
    {"smiles": "COc1cc(O)c2c(=O)c3cccc(O)c3n(C)c2c1OC", "note": "[Citrusinine I, citrusinine I]", "values": [
      {"measurement": "IC50", "setting": "[1]", "result": "35.4 ± 1.61", "unit": "µM"},
      {"measurement": "IC50", "setting": "Aβ1-42", "result": "7.05 ± 1.45", "unit": "µM"},
      {"measurement": "IC50", "setting": "[2]", "result": "33.77 ± 0.29", "unit": "µM"}
    ]},
    {"smiles": "COc1c(O)cc2c(c1O)c(=O)c1cccc(O)c1n2C", "note": "[Glycosparvarine, glycosparvarine]", "values": [
      {"measurement": "IC50", "setting": "[1]", "result": "18.6 ± 2.77", "unit": "µM"},
      {"measurement": "IC50", "setting": "Aβ1-42", "result": "6.58 ± 2.03", "unit": "µM"},
      {"measurement": "IC50", "setting": "[2]", "result": "22.9 ± 2.24", "unit": "µM"},
      {"measurement": "Effect on viability of SH-SY5Y cells (MTT)", "setting": "[3]", "result": "no effect on viability"},
      {"measurement": "Neuroprotective effect against H2O2-induced loss of cell viability (MTT)", "setting": "SH-SY5Y cells [4]", "result": "attenuated"}
    ]},
    {"smiles": "COc1c(O)cc(O)c2c(=O)c3cccc(O)c3n(C)c12", "note": "[Citrusinine II, citrusinine II]", "values": [
      {"measurement": "IC50", "setting": "[1]", "result": "42.6 ± 4.81", "unit": "µM"},
      {"measurement": "IC50", "setting": "Aβ1-42", "result": "6.17 ± 2.29", "unit": "µM"},
      {"measurement": "Neuroprotective effect against Aβ1-42 toxicity (MTT)", "setting": "SH-SY5Y cells [5]", "result": "significantly protected"},
      {"measurement": "IC50", "setting": "[2]", "result": "20 ± 3.89", "unit": "µM"},
      {"measurement": "Effect on viability of SH-SY5Y cells (MTT)", "setting": "[3]", "result": "no effect on viability"},
      {"measurement": "Neuroprotective effect against H2O2-induced loss of cell viability (MTT)", "setting": "SH-SY5Y cells [4]", "result": "attenuated"}
    ]},
    {"smiles": "CC(C)=CCc1c2c(c(O)c3c(=O)c4cccc(O)c4n(C)c13)C=CC(C)(C)O2", "note": "[N-methylcycloatalaphylline A]", "values": [
      {"measurement": "IC50", "setting": "[1]", "result": "66.6 ± 2.51", "unit": "µM"},
      {"measurement": "IC50", "setting": "Aβ1-42", "result": "5.84 ± 0.99", "unit": "µM"},
      {"measurement": "IC50", "setting": "[2]", "result": "79.6 ± 3.26", "unit": "µM"}
    ]},
    {"smiles": "CC(C)=CCc1c(O)c(CC=C(C)C)c2c(c1O)c(=O)c1cccc(O)c1n2C", "note": "[N-methylatalaphylline]", "values": [
      {"measurement": "IC50", "setting": "[1]", "result": "49.1 ± 2.75", "unit": "µM"},
      {"measurement": "IC50", "setting": "Aβ1-42", "result": "7.32 ± 0.09", "unit": "µM"},
      {"measurement": "IC50", "setting": "[2]", "result": "50.7 ± 1.02", "unit": "µM"}
    ]},
    {"smiles": "COc1c(O)c(OC)c2c(c1O)c(=O)c1cccc(O)c1n2C", "note": "[Citruscridone, citruscridone]", "values": [
      {"measurement": "IC50", "setting": "[1]", "result": "47 ± 2.4", "unit": "µM"},
      {"measurement": "IC50", "setting": "Aβ1-42", "result": "8.61 ± 0.75", "unit": "µM"},
      {"measurement": "IC50", "setting": "[2]", "result": "31.7 ± 0.56", "unit": "µM"}
    ]},
    {"smiles": "CC(C)=CCc1c(O)c(CC=C(C)C)c2[nH]c3c(O)cccc3c(=O)c2c1O", "note": "[Atalaphylline, atalaphylline]", "values": [
      {"measurement": "IC50", "setting": "[1]", "result": "58.3 ± 2.99", "unit": "µM"},
      {"measurement": "IC50", "setting": "Aβ1-42", "result": "6.58 ± 1.3", "unit": "µM"},
      {"measurement": "IC50", "setting": "[2]", "result": "46.2 ± 2.31", "unit": "µM"}
    ]},
    {"smiles": "Cc1c(C)c2c(c(C)c1O)CCC(C)(C(=O)O)O2", "note": "(stereo not drawn) [Trolox, reference compound]", "values": [
      {"measurement": "IC50", "setting": "[2]", "result": "58.9 ± 2.38", "unit": "µM"}
    ]},
    {"smiles": "COc1cc2[nH]c3c(O)cccc3c(=O)c2c(O)c1CC=C(C)C", "note": "[Buxifoliadine C, buxifoliadine C]", "values": [
      {"measurement": "IC50", "setting": "[1]", "result": "50.8 ± 3.74", "unit": "µM"},
      {"measurement": "IC50", "setting": "Aβ1-42", "result": "8.81 ± 3.62", "unit": "µM"},
      {"measurement": "IC50", "setting": "[2]", "result": "21.8 ± 2.71", "unit": "µM"}
    ]}
  ]
}
